Where two headings read alike, the source gives them in different places.
Legend:
[1] = for Form or purity change after storage: 60° C./close and 40° C./75% RH/open for 2/4/8 weeks
[2] = Hygroscopicity evaluation by DVS at 25° C.; format: physicochemical
Description: DVS was measured via a SMS (Surface Measurement Systems) DVS Intrinsic. The relative humidity at 25° C. were calibrated against deliquescence point of LiCl, Mg(NO3)2 and KCl.

N=C(N)NCCCC(N)C(=O)O.[2H]C([2H])(Cc1nc(-c2ccccc2)oc1C)Oc1ccc(C[C@H](OC)C(=O)O)c2sccc12 [arginine salt Form A]
Area (%) of impurity peak RRT 0.88 ([1]; 40° C./75% RH, 2 weeks): 0.14% | Area (%) of impurity peak RRT 1.14 ([1]; 40° C./75% RH, 2 weeks): 0.06% | Area (%) of impurity peak RRT 1.34 ([1]; 40° C./75% RH, 2 weeks): 0.22% | Area (%) of impurity peak RRT 0.88 ([1]; 40° C./75% RH, 4 weeks): 0.11% | Area (%) of impurity peak RRT 1.34 ([1]; 40° C./75% RH, 4 weeks): 0.19% | Area (%) of impurity peak RRT 0.88 ([1]; 40° C./75% RH, 8 weeks): 0.07% | Area (%) of impurity peak RRT 1.34 ([1]; 40° C./75% RH, 8 weeks): 0.19% | HPLC Purity (area %), main peak RRT 1.00 ([1]; 40° C./75% RH/open, 2 weeks): 99.59 area % | HPLC Reults of initial (%) ([1]; 40° C./75% RH/open, 2 weeks): 99.87% | HPLC Purity (area %), main peak RRT 1.00 ([1]; 40° C./75% RH/open, 4 weeks): 99.70 area % | HPLC Reults of initial (%) ([1]; 40° C./75% RH/open, 4 weeks): 99.98% | HPLC Purity (area %), main peak RRT 1.00 ([1]; 40° C./75% RH/open, 8 weeks): 99.74 area % | HPLC Reults of initial (%) ([1]; 40° C./75% RH/open, 8 weeks): 100.02% | Area (%) of impurity peak RRT 0.88 ([1]; 60° C., 2 weeks): 0.06% | Area (%) of impurity peak RRT 1.34 ([1]; 60° C., 2 weeks): 0.18% | Area (%) of impurity peak RRT 0.88 ([1]; 60° C., 4 weeks): 0.09% | Area (%) of impurity peak RRT 1.34 ([1]; 60° C., 4 weeks): 0.18% | Area (%) of impurity peak RRT 0.81 ([1]; 60° C., 8 weeks): 0.05% | Area (%) of impurity peak RRT 0.88 ([1]; 60° C., 8 weeks): 0.06% | Area (%) of impurity peak RRT 1.34 ([1]; 60° C., 8 weeks): 0.18% | Form or purity change after storage [1]: No form or purity decrease | HPLC Purity (area %), main peak RRT 1.00 ([1]; 60° C./close, 2 weeks): 99.76 area % | HPLC Reults of initial (%) ([1]; 60° C./close, 2 weeks): 100.04% | HPLC Purity (area %), main peak RRT 1.00 ([1]; 60° C./close, 4 weeks): 99.73 area % | HPLC Reults of initial (%) ([1]; 60° C./close, 4 weeks): 100.01% | HPLC Purity (area %), main peak RRT 1.00 ([1]; 60° C./close, 8 weeks): 99.71 area % | HPLC Reults of initial (%) ([1]; 60° C./close, 8 weeks): 99.99% | Area (%) of impurity peak RRT 0.88 ([1]; Initial): 0.07% | Area (%) of impurity peak RRT 1.34 ([1]; Initial): 0.20% | HPLC Purity (area %), main peak RRT 1.00 ([1]; Initial): 99.72 area % | Hygroscopicity ([2]; DVS, 25° C.): slightly hygroscopicity | Water uptake up to 80% RH ([2]; DVS, 25° C.): 0.5% | Form change after DVS test ([2]; XRPD after DVS): No form change

[2H]C([2H])(Cc1nc(-c2ccccc2)oc1C)Oc1ccc(C[C@H](OC)C(=O)O)c2sccc12 [free acid Form E]
Area (%) of impurity peak RRT 0.88 ([1]; 40° C./75% RH, 2 weeks): 0.33% | Area (%) of impurity peak RRT 1.14 ([1]; 40° C./75% RH, 2 weeks): 0.15% | Area (%) of impurity peak RRT 1.28 ([1]; 40° C./75% RH, 2 weeks): 0.18% | Area (%) of impurity peak RRT 1.33 ([1]; 40° C./75% RH, 2 weeks): 0.25% | Area (%) of impurity peak RRT 0.88 ([1]; 40° C./75% RH, 4 weeks): 0.35% | Area (%) of impurity peak RRT 1.14 ([1]; 40° C./75% RH, 4 weeks): 0.15% | Area (%) of impurity peak RRT 1.28 ([1]; 40° C./75% RH, 4 weeks): 0.23% | Area (%) of impurity peak RRT 1.33 ([1]; 40° C./75% RH, 4 weeks): 0.27% | Area (%) of impurity peak RRT 0.88 ([1]; 40° C./75% RH, 8 weeks): 0.32% | Area (%) of impurity peak RRT 1.14 ([1]; 40° C./75% RH, 8 weeks): 0.13% | Area (%) of impurity peak RRT 1.28 ([1]; 40° C./75% RH, 8 weeks): 0.20% | Area (%) of impurity peak RRT 1.33 ([1]; 40° C./75% RH, 8 weeks): 0.27% | HPLC Purity (area %), main peak RRT 1.00 ([1]; 40° C./75% RH/open, 2 weeks): 99.08 area % | HPLC Reults of initial (%) ([1]; 40° C./75% RH/open, 2 weeks): 100.07% | HPLC Purity (area %), main peak RRT 1.00 ([1]; 40° C./75% RH/open, 4 weeks): 99.00 area % | HPLC Reults of initial (%) ([1]; 40° C./75% RH/open, 4 weeks): 99.99% | HPLC Purity (area %), main peak RRT 1.00 ([1]; 40° C./75% RH/open, 8 weeks): 99.03 area % | HPLC Reults of initial (%) ([1]; 40° C./75% RH/open, 8 weeks): 100.02% | Area (%) of impurity peak RRT 0.88 ([1]; 60° C., 2 weeks): 0.32% | Area (%) of impurity peak RRT 1.14 ([1]; 60° C., 2 weeks): 0.16% | Area (%) of impurity peak RRT 1.28 ([1]; 60° C., 2 weeks): 0.23% | Area (%) of impurity peak RRT 1.33 ([1]; 60° C., 2 weeks): 0.25% | Area (%) of impurity peak RRT 0.88 ([1]; 60° C., 4 weeks): 0.38% | Area (%) of impurity peak RRT 1.14 ([1]; 60° C., 4 weeks): 0.17% | Area (%) of impurity peak RRT 1.28 ([1]; 60° C., 4 weeks): 0.26% | Area (%) of impurity peak RRT 1.33 ([1]; 60° C., 4 weeks): 0.29% | Area (%) of impurity peak RRT 0.88 ([1]; 60° C., 8 weeks): 0.34% | Area (%) of impurity peak RRT 1.14 ([1]; 60° C., 8 weeks): 0.14% | Area (%) of impurity peak RRT 1.28 ([1]; 60° C., 8 weeks): 0.23% | Area (%) of impurity peak RRT 1.33 ([1]; 60° C., 8 weeks): 0.27% | Form or purity change after storage [1]: No form or purity decrease | HPLC Purity (area %), main peak RRT 1.00 ([1]; 60° C./close, 2 weeks): 99.04 area % | HPLC Reults of initial (%) ([1]; 60° C./close, 2 weeks): 100.03% | HPLC Purity (area %), main peak RRT 1.00 ([1]; 60° C./close, 4 weeks): 98.89 area % | HPLC Reults of initial (%) ([1]; 60° C./close, 4 weeks): 99.88% | HPLC Purity (area %), main peak RRT 1.00 ([1]; 60° C./close, 8 weeks): 98.96 area % | HPLC Reults of initial (%) ([1]; 60° C./close, 8 weeks): 99.95% | Area (%) of impurity peak RRT 0.88 ([1]; Initial): 0.31% | Area (%) of impurity peak RRT 1.14 ([1]; Initial): 0.16% | Area (%) of impurity peak RRT 1.28 ([1]; Initial): 0.26% | Area (%) of impurity peak RRT 1.33 ([1]; Initial): 0.25% | HPLC Purity (area %), main peak RRT 1.00 ([1]; Initial): 99.01 area %

From US20260234135A1, “CRYSTALLINE FORMS OR SALTS OF A DEUTERATED COMPOUND” (ALEBUND PHARMACEUTICALS (HONG KONG) LIMITED, priority 2023, published 2026)
